According to ChEMBL document CHEMBL1151757, “Synthesis, radiosynthesis, and biological evaluation of fluorine-18-labeled 2beta-carbo(fluoroalkoxy)-3beta-(3'-((Z)-2-haloethenyl)phenyl)nortropanes: candidate radioligands for in vivo imaging of the serotonin transporter with positron emission tomography” (J Med Chem, 2008):

Experiments:
[1] = system: Caudate; test: Drug uptake in anesthetized cynomolgus monkey brain caudate after 175 mins postinjection; format: ADME, organism-based, Macaca fascicularis, Caudate nucleus; settings: in vivo
[2] = system: Midbrain; test: Drug uptake in anesthetized cynomolgus monkey brain midbrain after 65 mins postinjection; format: ADME, organism-based, Macaca fascicularis; set-up: unit not given here; settings: in vivo
[3] = system: Thalamus; test: Drug uptake in anesthetized cynomolgus monkey brain thalamus after 0.5 mins postinjection; format: ADME, organism-based, Macaca fascicularis; settings: in vivo
[4] = system: Caudate; test: Drug uptake in anesthetized cynomolgus monkey brain caudate after 115 mins postinjection; format: ADME, organism-based, Macaca fascicularis, Caudate nucleus; settings: in vivo
[5] = system: Medulla; test: Drug uptake in anesthetized cynomolgus monkey brain medulla after 2.5 mins postinjection; format: ADME, organism-based, Macaca fascicularis; settings: in vivo
[6] = system: Midbrain; test: Drug uptake in anesthetized cynomolgus monkey brain midbrain after 185 mins postinjection; format: ADME, organism-based, Macaca fascicularis; settings: in vivo
[7] = system: Thalamus; test: Drug uptake in anesthetized cynomolgus monkey brain thalamus after 205 mins postinjection; format: ADME, organism-based, Macaca fascicularis; settings: in vivo
[8] = system: Putamen; test: Drug uptake in anesthetized cynomolgus monkey brain putamen after 15.5 mins postinjection; format: ADME, organism-based, Macaca fascicularis; set-up: unit not given here; settings: in vivo
[9] = system: Caudate; test: Drug uptake in anesthetized cynomolgus monkey brain caudate after 125 mins postinjection; format: ADME, organism-based, Macaca fascicularis, Caudate nucleus; settings: in vivo
[10] = system: Thalamus; test: Drug uptake in anesthetized cynomolgus monkey brain thalamus after 75 mins postinjection; format: ADME, organism-based, Macaca fascicularis; set-up: unit not given here; settings: in vivo, 1.25 h
[11] = system: Midbrain; test: Drug uptake in anesthetized cynomolgus monkey brain midbrain after 9.5 mins postinjection; format: ADME, organism-based, Macaca fascicularis; set-up: unit not given here; settings: in vivo
[12] = Ratio of drug uptake in midbrain to cerebellum in anesthetized cynomolgus monkey after 225 mins postinjection; format: ADME, organism-based, Macaca fascicularis; settings: in vivo, 3.75 h
[13] = system: Midbrain; test: Drug uptake in anesthetized cynomolgus monkey brain midbrain after 22.5 mins postinjection; format: ADME, organism-based, Macaca fascicularis; set-up: unit not given here; settings: in vivo, 0.375 h
[14] = system: Midbrain; test: Drug uptake in anesthetized cynomolgus monkey brain midbrain after 95 mins postinjection; format: ADME, organism-based, Macaca fascicularis; set-up: unit not given here; settings: in vivo
[15] = Drug uptake in anesthetized cynomolgus monkey brain frontal lobe after 27.5 mins postinjection; format: ADME, organism-based, Macaca fascicularis; settings: in vivo
[16] = system: Caudate; test: Drug uptake in anesthetized cynomolgus monkey brain caudate after 4.5 mins postinjection; format: ADME, organism-based, Macaca fascicularis, Caudate nucleus; settings: in vivo, 0.075 h
[17] = system: Caudate; test: Drug uptake in anesthetized cynomolgus monkey brain caudate after 135 mins postinjection; format: ADME, organism-based, Macaca fascicularis, Caudate nucleus; settings: in vivo, 2.25 h
[18] = system: Thalamus; test: Drug uptake in anesthetized cynomolgus monkey brain thalamus after 215 mins postinjection; format: ADME, organism-based, Macaca fascicularis; set-up: unit not given here; settings: in vivo
[19] = Drug uptake in anesthetized cynomolgus monkey brain frontal lobe after 2.5 mins postinjection; format: ADME, organism-based, Macaca fascicularis; settings: in vivo
[20] = system: Medulla; test: Drug uptake in anesthetized cynomolgus monkey brain medulla after 22.5 mins postinjection; format: ADME, organism-based, Macaca fascicularis; settings: in vivo, 0.375 h
[21] = Ratio of drug uptake in occipital lobe to cerebellum in anesthetized cynomolgus monkey after 115 mins postinjection; format: ADME, organism-based, Macaca fascicularis; settings: in vivo
[22] = Drug uptake in anesthetized cynomolgus monkey brain cerebellum after 12.5 mins postinjection; format: ADME, organism-based, Macaca fascicularis; settings: in vivo
[23] = Drug uptake in anesthetized cynomolgus monkey brain frontal lobe after 95 mins postinjection; format: ADME, organism-based, Macaca fascicularis; settings: in vivo
[24] = Ratio of drug uptake in midbrain to cerebellum in anesthetized cynomolgus monkey after 2.5 mins postinjection; format: ADME, organism-based, Macaca fascicularis; settings: in vivo
[25] = system: Putamen; test: Drug uptake in anesthetized cynomolgus monkey brain putamen after 225 mins postinjection; format: ADME, organism-based, Macaca fascicularis; settings: in vivo, 3.75 h
[26] = Drug uptake in anesthetized cynomolgus monkey brain cerebellum after 225 mins postinjection; format: ADME, organism-based, Macaca fascicularis; settings: in vivo, 3.75 h
[27] = Ratio of drug uptake in pons to cerebellum in anesthetized cynomolgus monkey after 145 mins postinjection; format: ADME, organism-based, Macaca fascicularis; settings: in vivo
[28] = Drug uptake in anesthetized cynomolgus monkey brain occipital lobe after 205 mins postinjection; format: ADME, organism-based, Macaca fascicularis; settings: in vivo
[29] = system: Caudate; test: Drug uptake in anesthetized cynomolgus monkey brain caudate after 3.5 mins postinjection; format: ADME, organism-based, Macaca fascicularis, Caudate nucleus; settings: in vivo
[30] = system: Caudate; test: Drug uptake in anesthetized cynomolgus monkey brain caudate after 0.5 mins postinjection; format: ADME, organism-based, Macaca fascicularis, Caudate nucleus; settings: in vivo
[31] = Ratio of drug uptake in thalamus to cerebellum in anesthetized cynomolgus monkey after 155 mins postinjection; format: ADME, organism-based, Macaca fascicularis; settings: in vivo
[32] = Ratio of drug uptake in medulla to cerebellum in anesthetized cynomolgus monkey after 185 mins postinjection; format: ADME, organism-based, Macaca fascicularis; settings: in vivo
[33] = Ratio of drug uptake in frontal lobe to cerebellum in anesthetized cynomolgus monkey after 205 mins postinjection; format: ADME, organism-based, Macaca fascicularis; settings: in vivo
[34] = system: Pons; test: Drug uptake in anesthetized cynomolgus monkey brain pons after 155 mins postinjection; format: ADME, organism-based, Macaca fascicularis; settings: in vivo
[35] = system: Putamen; test: Drug uptake in anesthetized cynomolgus monkey brain putamen after 205 mins postinjection; format: ADME, organism-based, Macaca fascicularis; settings: in vivo
[36] = Ratio of drug uptake in frontal lobe to cerebellum in anesthetized cynomolgus monkey after 75 mins postinjection; format: ADME, organism-based, Macaca fascicularis; settings: in vivo, 1.25 h
[37] = system: Medulla; test: Drug uptake in anesthetized cynomolgus monkey brain medulla after 6.5 mins postinjection; format: ADME, organism-based, Macaca fascicularis; settings: in vivo
[38] = system: Thalamus; test: Drug uptake in anesthetized cynomolgus monkey brain thalamus after 175 mins postinjection; format: ADME, organism-based, Macaca fascicularis; set-up: unit not given here; settings: in vivo
[39] = Ratio of drug uptake in caudate to cerebellum in anesthetized cynomolgus monkey after 225 mins postinjection; format: ADME, organism-based, Macaca fascicularis; settings: in vivo, 3.75 h
[40] = system: Caudate; test: Drug uptake in anesthetized cynomolgus monkey brain caudate after 15.5 mins postinjection; format: ADME, organism-based, Macaca fascicularis, Caudate nucleus; settings: in vivo
[41] = system: Midbrain; test: Drug uptake in anesthetized cynomolgus monkey brain midbrain after 165 mins postinjection; format: ADME, organism-based, Macaca fascicularis; settings: in vivo, 2.75 h
[42] = system: Midbrain; test: Drug uptake in anesthetized cynomolgus monkey brain midbrain after 15.5 mins postinjection; format: ADME, organism-based, Macaca fascicularis; set-up: unit not given here; settings: in vivo
[43] = Ratio of drug uptake in medulla to cerebellum in anesthetized cynomolgus monkey after 1.5 mins postinjection; format: ADME, organism-based, Macaca fascicularis; settings: in vivo, 0.025 h
[44] = system: Midbrain; test: Drug uptake in anesthetized cynomolgus monkey brain midbrain after 3.5 mins postinjection; format: ADME, organism-based, Macaca fascicularis; set-up: unit not given here; settings: in vivo
[45] = Ratio of drug uptake in pons to cerebellum in anesthetized cynomolgus monkey after 105 mins postinjection; format: ADME, organism-based, Macaca fascicularis; settings: in vivo, 1.75 h
[46] = system: Thalamus; test: Drug uptake in anesthetized cynomolgus monkey brain thalamus after 185 mins postinjection; format: ADME, organism-based, Macaca fascicularis; settings: in vivo
[47] = system: Putamen; test: Drug uptake in anesthetized cynomolgus monkey brain putamen after 95 mins postinjection; format: ADME, organism-based, Macaca fascicularis; set-up: unit not given here; settings: in vivo
[48] = Drug uptake in anesthetized cynomolgus monkey brain cerebellum after 195 mins postinjection; format: ADME, organism-based, Macaca fascicularis; settings: in vivo, 3.25 h
[49] = Drug uptake in anesthetized cynomolgus monkey brain cerebellum after 95 mins postinjection; format: ADME, organism-based, Macaca fascicularis; settings: in vivo

O=C(OCC[18F])C1C2CCC(CC1c1ccc(/C=C\I)cc1)N2 (centres undefined)
Drug uptake [1]: 3 | Drug uptake [2]: 4.13 | Drug uptake [3]: 0 | Drug uptake [4]: 3.11 | Drug uptake [5]: 0.5 | Drug uptake [6]: 4.64 | Drug uptake [7]: 3.59 | Drug uptake [8]: 2.71 | Drug uptake [9]: 3.09 | Drug uptake [10]: 4.02 | Drug uptake [11]: 2.2 | Ratio [12]: 4.2 | Drug uptake [13]: 3.04 | Drug uptake [14]: 4.6 | Drug uptake [15]: 1.76 | Drug uptake [16]: 0.78 | Drug uptake [17]: 3.1 | Drug uptake [18]: 3.47 | Drug uptake [19]: 0.24 | Drug uptake [20]: 3.09 | Ratio [21]: 1.3 | Drug uptake [22]: 2.13 | Drug uptake [23]: 2.03 | Ratio [24]: 0.9 | Drug uptake [25]: 3.79 | Drug uptake [26]: 1.08 | Ratio [27]: 2.3 | Drug uptake [28]: 1.73 | Drug uptake [29]: 0.56 | Drug uptake [30]: 0 | Ratio [31]: 2.7 | Ratio [32]: 2.5 | Ratio [33]: 1.4 | Drug uptake [34]: 3.43 | Drug uptake [35]: 3.94 | Ratio [36]: 0.9 | Drug uptake [37]: 2.02 | Drug uptake [38]: 3.78 | Ratio [39]: 2.5 | Drug uptake [40]: 1.74 | Drug uptake [41]: 4.6 | Drug uptake [42]: 2.58 | Ratio [43]: 1.4 | Drug uptake [44]: 0.84 | Ratio [45]: 1.8 | Drug uptake [46]: 3.8 | Drug uptake [47]: 4.36 | Drug uptake [48]: 1.29 | Drug uptake [49]: 2.14
